Data from patent US20100197803A1, “METHOD FOR OBTAINING A SEQUOYITOL-CONTAINING EXTRACT FROM A PLANT OF THE GENUS OF TRIFOLIUM, LEGUMINOSAE OR GINKOACEAE AND USES THEREOF” (LIANCHUANGSIYUANLI BIOLOGY AND SCIENCE AND TECHNOLOGY CO., …, priority 2007, published 2010).
Where a name gives a salt, the structure may show the parent alone.

Key:
[1] = tested on: elevated level of blood glucose induced by Alloxan in mice; assay: Effect on the elevated level of blood glucose induced by alloxan in mice; type: in vivo; conditions: 75 mg/kg for 7 days
Procedure: Animals: 100 male mice weighed 22-25 g, Positive control: Phenformin Hydrochloride (Jiangsu Yabang Pharmaceutical (group) Co., Ltd.),
20 mice were randomly selected as the blank group. Others were injected intravenously with Alloxan via caudal vein at a dose of 65 mg/kg body weight, and then modeled according to established methods. The mice were divided into 4 groups according to their level of blood glucose, in which 3 groups were administered with 60 mg/kg of the plant extract, 75 mg/kg of Phenformin Hydrochloride, or 60 mg/kg of sequoyitol-containing Taxus chinensis extract respectively for 7 days, in a volume of 0.1 ml/10 g body weight. The same volume of distilled water was administered to the blank group and the control group. Blood glucose was determined using glucose oxidase method.

Solubility in water = type: physicochemical
Procedure: The sequoyitol was dissolved in water and sterilized by filtration. Solutions for injection were prepared according to the preparation process of solutions for injection. Powder for injection was prepared according to the preparation process of lyophilized powder for injection.

diabetes models = conditions: sequoyitol isolated from Taxus chinensis; cited from earlier work
[2] = sequoyitol isolated from Taxus chinensis; cited from earlier work

Compound | Decrease of alloxan-induced hyperglycemia in comparison to the control group [1] | Solubility in water (Solubility in water) | Effect on breakdown of hepatic glycogen and absorption of glucose (diabetes models) | Effect on high glycemia in diabetes models (diabetes models) | Toxicity [2]
[H]/N=C(/N)N/C(=N/[H])NCCc1ccccc1 [Phenformin Hydrochloride] | 155.8 mg/dL |  |  |  | 
CO[C@H]1[C@H](O)[C@@H](O)[C@@H](O)[C@@H](O)[C@@H]1O [Sequoyitol, sequoyitol] |  | well soluble in water | inhibits the breakdown of hepatic glycogen and the absorption of glucose | remarkably decreases high glycemia | very low toxicity
